Reference: patent publication US9079859B2, “Synthetic lethal targeting of glucose transport” (AUCKLAND UNISERVICES LIMITED, priority 2011, dated 2015)

Key:
Test in all cases: Kinase Profiler
Assay type in all cases: biochemical
Settings in all cases: STF-31 10 μM
PDK1 = molecular target: T1, PDK1 (Homo sapiens, UniProt O15530)
T1 construct: purchased Millipore Kinase Profiler
Description: (§1) Cell Culture and Reagents. All cells were grown in DMEM+10% FCS. ACHN and ACHN shVHL were a kind gift from George V. Thomas (UCLA). HIF overexpressing clones were described previously (Sutphin et al., Cancer Res, 67:5896-5905 (2007)). Transfection of RNA oligos were performed with DnarmaFECT Reagent 1 (Dharmcon), according to manufacturer's directions. ON-TARGETplus SMART pools against HIF-1 R/ARNT were purchased from Dharmacon. Inducible shRNAmir to GLUT1 was purchased from Open Biosystems. GLUT1 was detected with anti-GLUT1 antibody from NeoMarkers/LabVision/Fisher. For immunofluorescent studies, GLUT1, GLUT2, and GLUT3 antibodies were purchased from R&D. Pyruvate/lactate levels and hexokinase activity were both measured by fluorometric assay (BioVision and Sigma-Aldrich, respectively). ATP levels were measured by bioluminescence assay (ATP Determination Kit from Molecular Probes/Invitrogen). In vitro kinase activities were performed by Millipore Kinase Profiler.

TrkA = molecular target: T2, TrkA (Homo sapiens, UniProt P04629)
T2 construct: purchased Millipore (Kinase Profiler service)
Description: as §1

IKKα = molecular target: T3, IKKα (Homo sapiens, UniProt O15111)
T3 construct: purchased Millipore Kinase Profiler
Description: as §1

SAPK2a = molecular target: T4, SAPK2a (Homo sapiens, UniProt Q16539)
T4 construct: purchased Millipore (Kinase Profiler service)
Description: as §1

Abl = molecular target: T5, Abl (Homo sapiens, UniProt P00519)
T5 construct: purchased Millipore (Kinase Profiler service)
Description: as §1

Met = molecular target: T6, Met (Homo sapiens, UniProt P08581)
T6 construct: purchased Millipore Kinase Profiler
Description: as §1

JNK1α1 = molecular target: T7, JNK1α1 (Homo sapiens, UniProt P45983)
T7 construct: purchased Millipore Kinase Profiler
T7 sequence (P45983 1-384 isoform P45983-2, species assumed): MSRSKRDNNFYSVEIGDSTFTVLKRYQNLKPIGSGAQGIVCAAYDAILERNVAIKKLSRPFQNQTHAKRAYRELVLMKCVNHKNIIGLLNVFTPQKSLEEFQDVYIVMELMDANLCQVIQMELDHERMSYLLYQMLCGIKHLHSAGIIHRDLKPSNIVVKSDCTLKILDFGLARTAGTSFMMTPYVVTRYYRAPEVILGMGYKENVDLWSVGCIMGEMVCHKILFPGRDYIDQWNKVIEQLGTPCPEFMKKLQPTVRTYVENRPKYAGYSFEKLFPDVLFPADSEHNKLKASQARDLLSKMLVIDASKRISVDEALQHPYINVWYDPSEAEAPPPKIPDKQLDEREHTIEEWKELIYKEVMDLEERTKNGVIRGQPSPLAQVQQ
Description: as §1

c-RAF = molecular target: T8, c-RAF (Homo sapiens, UniProt P04049)
T8 construct: purchased Millipore (Kinase Profiler service)
Description: as §1

Aurora-A = molecular target: T9, Aurora-A (Homo sapiens, UniProt O14965)
T9 construct: purchased Millipore (Kinase Profiler service)
Description: as §1

Pim-2 = molecular target: T10, Pim-2 (Homo sapiens, UniProt Q9P1W9)
T10 construct: purchased Millipore Kinase Profiler
Description: as §1

MSK1 = molecular target: T11, MSK1 (Homo sapiens, UniProt O75582)
T11 construct: purchased Millipore Kinase Profiler
Description: as §1

IRAK1 = molecular target: T12, IRAK1 (Homo sapiens, UniProt P51617)
T12 construct: purchased Millipore Kinase Profiler
Description: as §1

Tie2 = molecular target: T13, Tie2 (Homo sapiens, UniProt Q02763)
T13 construct: purchased Millipore (Kinase Profiler service)
Description: as §1

CK1γ1 = molecular target: T14, CK1γ1 (Homo sapiens, UniProt Q9HCP0)
T14 construct: purchased Millipore (Kinase Profiler service)
Description: as §1

CHK1 = molecular target: T15, CHK1 (Homo sapiens, UniProt O14757)
T15 construct: purchased Millipore (Kinase Profiler service)
Description: as §1

PI3K = molecular target: PI3K
Description: as §1

MAPKAP-K2 = molecular target: T16, MAPKAP-K2 (Homo sapiens, UniProt P49137)
T16 construct: purchased Millipore Kinase Profiler
T16 sequence (P49137 whole entry, species assumed): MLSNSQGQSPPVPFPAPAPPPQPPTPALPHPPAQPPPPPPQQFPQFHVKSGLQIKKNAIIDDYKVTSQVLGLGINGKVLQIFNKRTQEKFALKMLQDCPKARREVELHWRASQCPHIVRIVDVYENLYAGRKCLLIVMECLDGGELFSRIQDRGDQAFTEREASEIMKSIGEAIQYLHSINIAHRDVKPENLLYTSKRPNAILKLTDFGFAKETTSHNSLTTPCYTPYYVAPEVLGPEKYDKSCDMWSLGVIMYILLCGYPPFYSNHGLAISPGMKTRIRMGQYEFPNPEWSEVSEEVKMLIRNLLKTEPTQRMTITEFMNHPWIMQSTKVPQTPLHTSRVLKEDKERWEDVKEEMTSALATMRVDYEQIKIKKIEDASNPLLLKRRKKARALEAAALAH
Description: as §1

PKA = molecular target: T17, PKA (Homo sapiens, UniProt P17612)
T17 construct: purchased Millipore Kinase Profiler
Description: as §1

NEK2 = molecular target: T18, NEK2 (Homo sapiens, UniProt P51955)
T18 construct: purchased Millipore Kinase Profiler
Description: as §1

JAK2 = molecular target: T19, JAK2 (Homo sapiens, UniProt O60674)
T19 construct: purchased Millipore Kinase Profiler
Description: as §1

PKBα = molecular target: T20, PKBα (Homo sapiens, UniProt P31749)
T20 construct: purchased Millipore Kinase Profiler
Description: as §1

Rsk1 = molecular target: T21, Rsk1 (Homo sapiens, UniProt Q15418)
T21 construct: purchased Millipore (Kinase Profiler service)
T21 sequence (Q15418 whole entry, species assumed): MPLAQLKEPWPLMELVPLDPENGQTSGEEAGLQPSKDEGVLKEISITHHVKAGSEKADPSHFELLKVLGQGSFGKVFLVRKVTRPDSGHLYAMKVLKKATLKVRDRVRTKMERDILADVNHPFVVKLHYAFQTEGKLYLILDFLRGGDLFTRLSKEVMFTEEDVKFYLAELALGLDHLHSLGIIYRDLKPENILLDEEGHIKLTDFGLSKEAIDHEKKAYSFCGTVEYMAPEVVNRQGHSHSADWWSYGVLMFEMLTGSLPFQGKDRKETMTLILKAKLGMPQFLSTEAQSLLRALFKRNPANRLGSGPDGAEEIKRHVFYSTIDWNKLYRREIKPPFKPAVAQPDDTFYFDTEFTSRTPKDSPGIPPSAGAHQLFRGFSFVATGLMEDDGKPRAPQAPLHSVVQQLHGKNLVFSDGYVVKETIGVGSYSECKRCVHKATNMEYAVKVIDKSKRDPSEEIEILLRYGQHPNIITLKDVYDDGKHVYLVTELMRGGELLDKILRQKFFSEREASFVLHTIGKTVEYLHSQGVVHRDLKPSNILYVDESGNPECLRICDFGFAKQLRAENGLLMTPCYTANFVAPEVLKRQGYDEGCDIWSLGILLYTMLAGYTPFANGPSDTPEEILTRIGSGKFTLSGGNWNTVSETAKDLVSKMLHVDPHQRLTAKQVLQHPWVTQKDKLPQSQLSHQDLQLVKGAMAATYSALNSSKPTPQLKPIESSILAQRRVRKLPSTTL
Description: as §1

CDK6/cyclinD3 = molecular target: T22, CDK6/cyclinD3 (Homo sapiens, UniProt Q00534)
T22 construct: purchased Millipore (Kinase Profiler service)
Description: as §1

MEK1 = molecular target: T23, MEK1 (Homo sapiens, UniProt Q02750)
T23 construct: purchased Millipore Kinase Profiler
Description: as §1

DYRK2 = molecular target: T24, DYRK2 (Homo sapiens, UniProt Q92630)
T24 construct: purchased Millipore (Kinase Profiler service)
Description: as §1

mTOR = molecular target: T25, mTOR (Homo sapiens, UniProt P42345)
T25 construct: purchased Millipore Kinase Profiler
Description: as §1

Fyn = molecular target: T26, Fyn (Homo sapiens, UniProt P06241)
T26 construct: purchased Millipore Kinase Profiler
T26 sequence (P06241 whole entry, species assumed): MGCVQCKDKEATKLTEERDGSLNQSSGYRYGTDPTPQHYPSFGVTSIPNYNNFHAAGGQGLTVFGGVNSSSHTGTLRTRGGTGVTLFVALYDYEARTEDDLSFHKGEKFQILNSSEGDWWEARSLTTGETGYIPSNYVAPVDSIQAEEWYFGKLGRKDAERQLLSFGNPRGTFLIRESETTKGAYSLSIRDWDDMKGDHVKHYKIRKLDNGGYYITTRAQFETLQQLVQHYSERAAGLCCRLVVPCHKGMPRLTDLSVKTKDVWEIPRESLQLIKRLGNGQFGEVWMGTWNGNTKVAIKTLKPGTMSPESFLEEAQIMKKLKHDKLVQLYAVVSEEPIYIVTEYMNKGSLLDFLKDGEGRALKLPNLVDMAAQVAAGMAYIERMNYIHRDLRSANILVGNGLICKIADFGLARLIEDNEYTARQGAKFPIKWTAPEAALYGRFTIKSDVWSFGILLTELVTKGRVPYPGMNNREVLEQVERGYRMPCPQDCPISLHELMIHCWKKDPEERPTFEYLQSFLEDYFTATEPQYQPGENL
Description: as §1

CDK1/cyclinB = molecular target: T27, CDK1/cyclinB (Homo sapiens, UniProt P06493)
T27 construct: purchased Millipore (Kinase Profiler service)
Description: as §1

Flt3 = molecular target: T28, Flt3 (Homo sapiens, UniProt P36888)
T28 construct: purchased Millipore Kinase Profiler
Description: as §1

Axl = molecular target: T29, Axl (Homo sapiens, UniProt P30530)
T29 construct: purchased Millipore (Kinase Profiler service)
Description: as §1

cSRC = molecular target: T30, cSRC (Homo sapiens, UniProt P12931)
T30 construct: purchased Millipore (Kinase Profiler service)
T30 sequence (P12931 whole entry, species assumed): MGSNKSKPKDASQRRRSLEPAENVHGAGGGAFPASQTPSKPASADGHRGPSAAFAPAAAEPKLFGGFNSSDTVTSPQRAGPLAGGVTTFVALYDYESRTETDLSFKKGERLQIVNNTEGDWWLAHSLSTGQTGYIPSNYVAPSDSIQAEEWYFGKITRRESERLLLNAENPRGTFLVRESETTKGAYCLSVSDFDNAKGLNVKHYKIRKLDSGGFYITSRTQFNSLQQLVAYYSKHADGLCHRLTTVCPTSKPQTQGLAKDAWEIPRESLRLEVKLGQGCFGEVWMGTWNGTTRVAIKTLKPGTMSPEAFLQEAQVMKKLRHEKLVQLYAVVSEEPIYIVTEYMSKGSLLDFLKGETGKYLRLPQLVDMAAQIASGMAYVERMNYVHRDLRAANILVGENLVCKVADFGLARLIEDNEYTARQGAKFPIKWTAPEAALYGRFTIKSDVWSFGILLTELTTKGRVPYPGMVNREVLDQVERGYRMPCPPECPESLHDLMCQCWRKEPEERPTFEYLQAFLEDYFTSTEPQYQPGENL
Description: as §1

EphA1 = molecular target: T31, EphA1 (Homo sapiens, UniProt P21709)
T31 construct: purchased Millipore (Kinase Profiler service)
T31 sequence (P21709 26-976, species assumed): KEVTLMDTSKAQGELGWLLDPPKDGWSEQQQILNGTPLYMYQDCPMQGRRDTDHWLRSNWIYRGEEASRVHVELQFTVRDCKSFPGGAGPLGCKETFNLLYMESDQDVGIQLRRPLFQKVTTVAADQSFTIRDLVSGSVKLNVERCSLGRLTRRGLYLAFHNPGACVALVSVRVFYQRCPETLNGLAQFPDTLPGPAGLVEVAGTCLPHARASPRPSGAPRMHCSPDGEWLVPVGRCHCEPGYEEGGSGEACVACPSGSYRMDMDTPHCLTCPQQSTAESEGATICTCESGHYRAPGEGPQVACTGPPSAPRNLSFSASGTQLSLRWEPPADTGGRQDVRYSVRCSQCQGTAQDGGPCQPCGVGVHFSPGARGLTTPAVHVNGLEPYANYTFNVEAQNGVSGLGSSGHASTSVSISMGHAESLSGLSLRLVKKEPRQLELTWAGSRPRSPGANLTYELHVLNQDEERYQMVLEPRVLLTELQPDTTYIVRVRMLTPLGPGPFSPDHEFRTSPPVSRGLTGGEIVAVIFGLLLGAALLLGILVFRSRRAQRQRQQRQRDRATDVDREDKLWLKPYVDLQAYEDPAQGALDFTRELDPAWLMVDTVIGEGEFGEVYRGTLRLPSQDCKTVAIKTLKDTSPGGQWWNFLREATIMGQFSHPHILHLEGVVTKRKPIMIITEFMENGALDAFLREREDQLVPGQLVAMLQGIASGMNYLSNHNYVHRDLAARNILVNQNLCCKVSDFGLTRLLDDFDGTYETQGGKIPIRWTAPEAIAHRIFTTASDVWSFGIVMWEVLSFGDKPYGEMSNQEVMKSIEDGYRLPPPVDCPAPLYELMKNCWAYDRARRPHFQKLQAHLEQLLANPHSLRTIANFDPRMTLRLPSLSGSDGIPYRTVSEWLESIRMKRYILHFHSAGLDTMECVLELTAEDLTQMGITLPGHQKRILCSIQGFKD
Description: as §1

FGFR1 = molecular target: T32, FGFR1 (Homo sapiens, UniProt P11362)
T32 construct: purchased Millipore Kinase Profiler
T32 sequence (P11362 22-822, species assumed): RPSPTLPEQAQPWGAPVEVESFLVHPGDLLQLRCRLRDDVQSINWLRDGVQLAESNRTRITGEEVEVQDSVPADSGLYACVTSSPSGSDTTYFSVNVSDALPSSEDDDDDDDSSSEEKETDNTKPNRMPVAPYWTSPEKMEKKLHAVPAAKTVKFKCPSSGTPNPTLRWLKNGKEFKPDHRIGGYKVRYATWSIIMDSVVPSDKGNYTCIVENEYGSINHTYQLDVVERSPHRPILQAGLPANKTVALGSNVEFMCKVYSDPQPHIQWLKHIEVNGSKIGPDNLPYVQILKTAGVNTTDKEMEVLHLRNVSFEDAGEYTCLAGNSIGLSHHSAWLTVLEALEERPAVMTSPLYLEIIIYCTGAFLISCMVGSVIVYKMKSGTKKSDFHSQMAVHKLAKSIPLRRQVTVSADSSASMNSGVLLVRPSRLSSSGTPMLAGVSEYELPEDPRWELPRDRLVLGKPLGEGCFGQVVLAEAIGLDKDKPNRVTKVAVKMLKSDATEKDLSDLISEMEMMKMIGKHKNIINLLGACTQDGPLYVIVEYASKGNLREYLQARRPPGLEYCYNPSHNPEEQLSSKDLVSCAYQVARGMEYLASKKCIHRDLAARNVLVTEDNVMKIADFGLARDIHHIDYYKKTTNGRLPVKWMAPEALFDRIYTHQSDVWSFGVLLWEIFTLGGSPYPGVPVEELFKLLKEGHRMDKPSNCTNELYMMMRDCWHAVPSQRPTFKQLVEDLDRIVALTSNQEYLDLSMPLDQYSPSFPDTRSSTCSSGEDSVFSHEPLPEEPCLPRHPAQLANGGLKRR
Description: as §1

CaMKI = molecular target: T33, CaMKI (Homo sapiens, UniProt Q14012)
T33 construct: purchased Millipore (Kinase Profiler service)
Description: as §1

ROCK-I = molecular target: T34, ROCK-I (Homo sapiens, UniProt Q13464)
T34 construct: purchased Millipore (Kinase Profiler service)
Description: as §1

Plk3 = molecular target: T35, Plk3 (Homo sapiens, UniProt Q9H4B4)
T35 construct: purchased Millipore (Kinase Profiler service)
Description: as §1

ASK1 = molecular target: T36, ASK1 (Homo sapiens, UniProt Q99683)
T36 construct: purchased Millipore (Kinase Profiler service)
Description: as §1

CSK = molecular target: T37, CSK (Homo sapiens, UniProt P41240)
T37 construct: purchased Millipore (Kinase Profiler service)
Description: as §1

T1 sequence (O15530 whole entry): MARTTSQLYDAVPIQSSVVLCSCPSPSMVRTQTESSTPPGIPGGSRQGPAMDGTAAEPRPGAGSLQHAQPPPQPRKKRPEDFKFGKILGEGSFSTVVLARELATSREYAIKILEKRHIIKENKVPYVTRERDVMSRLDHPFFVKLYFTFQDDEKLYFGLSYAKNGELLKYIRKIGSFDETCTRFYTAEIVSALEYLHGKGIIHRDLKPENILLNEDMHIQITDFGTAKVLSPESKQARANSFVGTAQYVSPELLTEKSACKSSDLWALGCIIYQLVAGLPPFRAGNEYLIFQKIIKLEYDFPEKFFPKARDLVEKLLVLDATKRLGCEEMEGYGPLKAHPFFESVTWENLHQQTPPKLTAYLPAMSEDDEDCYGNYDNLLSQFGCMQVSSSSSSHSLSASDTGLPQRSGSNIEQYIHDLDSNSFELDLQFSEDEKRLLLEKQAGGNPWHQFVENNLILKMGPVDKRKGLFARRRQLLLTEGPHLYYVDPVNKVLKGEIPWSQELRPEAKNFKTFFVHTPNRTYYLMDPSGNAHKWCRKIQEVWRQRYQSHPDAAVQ

With `CC(C)(C)c1ccc(S(=O)(=O)NCc2ccc(C(=O)Nc3cccnc3)cc2)cc1` [STF-31] the “Kinase response to STF-31” value (PDK1) was 105, the “Kinase response to STF-31” value (TrkA) was 124 and the “Kinase response to STF-31” value (IKKα) was 102. The “Kinase response to STF-31” value (SAPK2a) was 127, the “Kinase response to STF-31” value (Abl) was 108 and the “Kinase response to STF-31” value (Met) was 105. The “Kinase response to STF-31” value (JNK1α1) was 101, the “Kinase response to STF-31” value (c-RAF) was 103 and the “Kinase response to STF-31” value (Aurora-A) was 108. The “Kinase response to STF-31” value (Pim-2) was 112, the “Kinase response to STF-31” value (MSK1) was 107 and the “Kinase response to STF-31” value (IRAK1) was 105. For the same compound, the “Kinase response to STF-31” value (Tie2) was 111, the “Kinase response to STF-31” value (CK1γ1) was 85 and the “Kinase response to STF-31” value (CHK1) was 114. For the same compound, the “Kinase response to STF-31” value (PI3K) was 97, the “Kinase response to STF-31” value (MAPKAP-K2) was 87 and the “Kinase response to STF-31” value (PKA) was 96. The “Kinase response to STF-31” value (NEK2) was 103, the “Kinase response to STF-31” value (JAK2) was 113 and the “Kinase response to STF-31” value (PKBα) was 99. For the same compound, the “Kinase response to STF-31” value (Rsk1) was 120, the “Kinase response to STF-31” value (CDK6/cyclinD3) was 105 and the “Kinase response to STF-31” value (MEK1) was 99. The “Kinase response to STF-31” value (DYRK2) was 94, the “Kinase response to STF-31” value (mTOR) was 101 and the “Kinase response to STF-31” value (Fyn) was 91. For the same compound, the “Kinase response to STF-31” value (CDK1/cyclinB) was 96, the “Kinase response to STF-31” value (Flt3) was 111 and the “Kinase response to STF-31” value (Axl) was 87. The “Kinase response to STF-31” value (cSRC) was 104, the “Kinase response to STF-31” value (EphA1) was 102 and the “Kinase response to STF-31” value (FGFR1) was 107. The “Kinase response to STF-31” value (CaMKI) was 87, the “Kinase response to STF-31” value (ROCK-I) was 74 and the “Kinase response to STF-31” value (Plk3) was 104. For the same compound, the “Kinase response to STF-31” value (ASK1) was 129 and the “Kinase response to STF-31” value (CSK) was 99.
